Molecules are shown by their SMILES. The source made the active and inactive calls. The rule behind the calls is not given here.

The values below come from ChEMBL document CHEMBL1938312, “Design and combinatorial synthesis of a novel kinase-focused library using click chemistry-based fragment assembly” (Bioorg Med Chem Lett, 2012).

The target in assay [1] is Mitogen-activated protein kinase 1 (Homo sapiens) (UniProt P28482). As to the kind of experiment: Inhibition of Erk2 at 10 uM by colorimetric analysis.
Assay [2] deals with Glycogen synthase kinase-3 beta (Homo sapiens, UniProt P49841). As to the kind of experiment: Inhibition of GSK3-beta by colorimetric analysis.
Assay [3] concerns the target T1, 5'-AMP-activated protein kinase subunit beta-1 (Homo sapiens) (UniProt Q9Y478).
T1 sequence (whole entry): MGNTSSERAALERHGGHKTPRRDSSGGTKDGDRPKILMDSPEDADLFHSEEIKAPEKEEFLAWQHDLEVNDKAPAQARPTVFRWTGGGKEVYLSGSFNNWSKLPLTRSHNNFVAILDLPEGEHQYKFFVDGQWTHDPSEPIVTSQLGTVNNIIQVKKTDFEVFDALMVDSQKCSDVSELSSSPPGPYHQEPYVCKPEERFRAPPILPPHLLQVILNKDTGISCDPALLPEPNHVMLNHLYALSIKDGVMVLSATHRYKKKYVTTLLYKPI
Briefly: Inhibition of AMPKbeta1 at 10 uM by colorimetric analysis.

The target in assay [4] is Ephrin type-A receptor 2 (Homo sapiens) (UniProt P29317). Briefly: Inhibition of EPHA2 at 10 uM by colorimetric analysis.
For assay [5], the target named is MAP kinase-activated protein kinase 2 (Homo sapiens) (UniProt P49137). Briefly: Inhibition of MAPKAPK2 at 10 uM by colorimetric analysis.
The target in assay [6] is Tyrosine-protein kinase CSK (Homo sapiens) (UniProt P41240). Briefly: Inhibition of CSK at 10 uM by colorimetric analysis.
Assay [7] has as its target T2, Interleukin-1 receptor-associated kinase 4 (Homo sapiens) (UniProt Q9NWZ3).
T2 sequence (whole entry): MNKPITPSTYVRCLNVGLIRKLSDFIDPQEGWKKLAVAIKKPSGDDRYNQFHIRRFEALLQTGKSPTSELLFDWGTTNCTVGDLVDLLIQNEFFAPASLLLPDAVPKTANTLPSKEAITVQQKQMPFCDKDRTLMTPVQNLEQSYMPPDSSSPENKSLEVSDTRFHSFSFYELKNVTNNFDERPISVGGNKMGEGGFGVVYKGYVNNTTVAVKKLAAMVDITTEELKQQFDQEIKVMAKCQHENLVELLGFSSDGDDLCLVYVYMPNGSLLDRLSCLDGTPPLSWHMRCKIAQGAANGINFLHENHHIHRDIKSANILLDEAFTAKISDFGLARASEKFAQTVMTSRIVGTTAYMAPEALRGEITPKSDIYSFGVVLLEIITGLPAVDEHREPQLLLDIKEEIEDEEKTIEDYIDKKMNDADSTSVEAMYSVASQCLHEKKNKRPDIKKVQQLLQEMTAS
As to the kind of experiment: Inhibition of IRAK4 at 10 uM by colorimetric analysis.

Chain of Mitogen-activated protein kinase 1 (Homo sapiens) (P28482 whole entry): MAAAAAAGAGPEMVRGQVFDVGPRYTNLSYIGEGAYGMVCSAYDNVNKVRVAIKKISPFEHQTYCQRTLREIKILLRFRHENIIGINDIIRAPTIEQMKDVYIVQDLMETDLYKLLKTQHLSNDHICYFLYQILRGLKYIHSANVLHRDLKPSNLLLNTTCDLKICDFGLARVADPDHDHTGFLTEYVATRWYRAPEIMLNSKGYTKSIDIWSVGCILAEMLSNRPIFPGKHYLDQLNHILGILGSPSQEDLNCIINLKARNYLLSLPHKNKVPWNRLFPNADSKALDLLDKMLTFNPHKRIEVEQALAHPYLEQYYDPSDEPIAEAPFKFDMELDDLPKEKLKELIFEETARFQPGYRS
Chain of Ephrin type-A receptor 2 (Homo sapiens) (P29317 whole entry): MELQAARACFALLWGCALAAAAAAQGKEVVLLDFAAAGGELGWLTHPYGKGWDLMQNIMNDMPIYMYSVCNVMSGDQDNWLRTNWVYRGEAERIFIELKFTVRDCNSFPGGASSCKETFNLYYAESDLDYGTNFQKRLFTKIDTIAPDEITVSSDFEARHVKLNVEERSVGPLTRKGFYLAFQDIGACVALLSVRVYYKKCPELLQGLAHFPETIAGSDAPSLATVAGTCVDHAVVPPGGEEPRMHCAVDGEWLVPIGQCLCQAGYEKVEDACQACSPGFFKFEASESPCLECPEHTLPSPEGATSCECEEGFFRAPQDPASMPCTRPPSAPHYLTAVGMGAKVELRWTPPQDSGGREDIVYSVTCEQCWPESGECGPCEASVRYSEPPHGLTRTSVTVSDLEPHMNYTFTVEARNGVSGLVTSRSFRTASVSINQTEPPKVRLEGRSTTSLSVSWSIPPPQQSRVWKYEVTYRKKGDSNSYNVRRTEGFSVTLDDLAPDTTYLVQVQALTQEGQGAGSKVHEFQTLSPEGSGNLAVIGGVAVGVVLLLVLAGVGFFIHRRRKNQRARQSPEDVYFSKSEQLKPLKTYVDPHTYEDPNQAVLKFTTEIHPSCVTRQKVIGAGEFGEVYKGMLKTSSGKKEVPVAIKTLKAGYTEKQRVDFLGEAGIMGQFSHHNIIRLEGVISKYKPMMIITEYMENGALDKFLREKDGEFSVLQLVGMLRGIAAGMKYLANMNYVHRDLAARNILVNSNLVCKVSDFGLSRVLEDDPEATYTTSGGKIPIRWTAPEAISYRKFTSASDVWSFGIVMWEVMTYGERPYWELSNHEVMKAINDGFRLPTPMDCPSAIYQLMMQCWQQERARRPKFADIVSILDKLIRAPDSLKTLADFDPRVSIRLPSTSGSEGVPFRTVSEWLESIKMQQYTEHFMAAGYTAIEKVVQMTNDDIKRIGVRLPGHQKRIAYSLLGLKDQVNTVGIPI
Chain of MAP kinase-activated protein kinase 2 (Homo sapiens) (P49137 whole entry, looked up): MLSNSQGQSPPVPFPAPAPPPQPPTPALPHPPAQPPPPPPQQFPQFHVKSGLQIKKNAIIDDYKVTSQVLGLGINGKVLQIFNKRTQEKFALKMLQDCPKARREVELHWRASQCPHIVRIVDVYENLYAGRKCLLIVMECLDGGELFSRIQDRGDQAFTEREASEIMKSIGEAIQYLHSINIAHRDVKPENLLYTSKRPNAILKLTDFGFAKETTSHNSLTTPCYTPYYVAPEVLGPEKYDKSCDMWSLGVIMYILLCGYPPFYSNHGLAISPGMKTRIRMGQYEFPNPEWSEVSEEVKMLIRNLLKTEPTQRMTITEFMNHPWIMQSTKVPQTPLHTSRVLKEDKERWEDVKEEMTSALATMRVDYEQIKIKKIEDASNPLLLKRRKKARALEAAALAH
Chain of Tyrosine-protein kinase CSK (Homo sapiens) (P41240 2-450 limits assumed): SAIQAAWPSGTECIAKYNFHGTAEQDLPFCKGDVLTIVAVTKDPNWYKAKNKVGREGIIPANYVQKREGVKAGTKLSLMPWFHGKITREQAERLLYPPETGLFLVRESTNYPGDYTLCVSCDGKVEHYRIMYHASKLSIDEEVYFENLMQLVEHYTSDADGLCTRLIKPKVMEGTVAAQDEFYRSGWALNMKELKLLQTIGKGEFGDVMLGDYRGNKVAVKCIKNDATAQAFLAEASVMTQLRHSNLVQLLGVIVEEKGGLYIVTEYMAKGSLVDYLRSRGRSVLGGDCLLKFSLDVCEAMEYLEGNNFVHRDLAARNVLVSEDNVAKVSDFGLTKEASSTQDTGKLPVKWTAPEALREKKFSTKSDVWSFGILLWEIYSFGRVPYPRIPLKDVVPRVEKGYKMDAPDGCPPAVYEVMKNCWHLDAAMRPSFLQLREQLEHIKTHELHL
Chain of Glycogen synthase kinase-3 beta (P49841 whole entry): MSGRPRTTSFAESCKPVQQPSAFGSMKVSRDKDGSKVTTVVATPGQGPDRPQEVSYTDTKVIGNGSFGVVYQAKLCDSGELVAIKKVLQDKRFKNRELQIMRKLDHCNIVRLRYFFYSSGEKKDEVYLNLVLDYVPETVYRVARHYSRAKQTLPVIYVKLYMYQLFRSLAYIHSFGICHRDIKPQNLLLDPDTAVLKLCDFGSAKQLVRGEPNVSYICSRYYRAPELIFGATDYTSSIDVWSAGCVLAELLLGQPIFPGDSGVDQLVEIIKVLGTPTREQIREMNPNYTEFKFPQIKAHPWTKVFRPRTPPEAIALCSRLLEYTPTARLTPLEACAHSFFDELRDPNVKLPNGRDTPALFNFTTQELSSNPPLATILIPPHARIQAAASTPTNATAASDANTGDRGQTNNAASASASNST

The IC50 is the midpoint of a concentration-inhibition curve. High values mean lower potency, low ones higher potency. Take `Clc1ccc(-n2cc(-c3ccncc3)nn2)cc1`: the inhibition result in assay [1], in assay [3], in assay [5] and in assay [7] was “Active” each time. The same compound yielded an IC50 in assay [2] of 1100 nM. For the same compound, the inhibition entry in assay [4] and in assay [6] was “inactive” throughout.
For the compound `Clc1cccc(-n2nncc2-c2ccncc2)c1`, the inhibition entry in assay [1], in assay [3], in assay [5] and in assay [7] was “Active” in each case. The inhibition entry in assay [4] and in assay [6] was “inactive” each time.
For the compound `Clc1ccc(-n2nncc2-c2ccncc2)cc1`, the inhibition result in assay [1], in assay [3], in assay [5] and in assay [7] was “Active” each time. The inhibition entry in assay [4] and in assay [6] was “inactive” each time.
On to `Clc1cccc(-n2cc(-c3ccncc3)nn2)c1`, for which the inhibition entry in assay [1], in assay [3], in assay [5] and in assay [7] was “Active” throughout. In assay [2], this compound had a concentration for half-maximal inhibition (IC50) of 1800 nM. Further, the inhibition entry in assay [4] and in assay [6] was “inactive” throughout.
